According to patent US7498353B2, “Heterocyclic anti-viral compounds comprising metabolizable moieties and their uses” (priority 2005, dated 2009):

Tests used:
[1] = tested on: HCV replicon in 5-2 Luc replicon-comprising cells; test: HCV replicon assay, luciferase readout (HEPC_REPLICON-LUC); format: cell-based; details: Hepatitis C virus; 5-2 Luc replicon cells, 50% reduction in luciferase emission; read-out: HEPC_REPLICON-LUC Result Value (IC50)
From the text: In one embodiment, the inhibitory activity of the metabolically active agent of the prodrug can be confirmed in a replicon assay that assesses the ability of a test compound to block or inhibit HCV replication in replicon cells. One example of a suitable replicon assay is the liver cell-line Huh 7-based replicon assay described in Lohmann et al., 1999, Science 285:110-113. A specific example of this replicon assay which utilizes luciferase translation is provided in the Examples Section. In one embodiment of this assay, the amount of test prodrug that yields a 50% reduction in translation as compared to a control cell (IC50) may be determined.
The inhibitory activity of certain prodrugs of the invention, which may inhibit HCV translation or replication prior to metablism and/or are metabolized into active agents, was confirmed using an HCV replicon assay. The HCV replicon can include such features as the HCV 5′ untranslated region including the HCV IRES, the HCV 3′ untranslated region, selected HCV genes encoding HCV polypeptides, selectable markers, and a reporter gene such as luciferase, GFP, etc. In the assay, actively dividing 5-2 Luc replicon-comprising cells (obtained from Ralf Bartenschlager; see Lohmann et al., 1999, Science 285:110-113) were seeded at a density of between about 5,000 and 7,500 cells/well onto 96 well plates (about 90 μl of cells per well) and incubated at 37° C. and 5% CO2 for 24 hours. Then, the test prodrug (in a volume of about 10 μl) was added to the wells at various concentrations and the cells were incubated for an additional 24-48 hours before luciferase assay. The media was aspirated from each well and Bright-Glo (Promega, Madison, Wis.) luciferase assay reagents were added to each well according to the manufacturer's instructions. Briefly, the Bright-Glo reagent was diluted 1:1 with PBS and 100 μl of diluted reagent was added to each well. After 5 min of incubation at room temperature, luciferin emission was quantified with a luminometer. In this assay, the amount of test prodrug that yielded a 50% reduction in luciferase emission (IC50) was determined. This IC50 value may represent the antiviral activity of the prodrug itself, the activity of prodrug transformed into its active metabolized form, or a combination of the two.

[2] = tested on: HCV NS5A protein in 9-13 replicon cells; test: Quantitative Western blot replicon assay (HEPC_REPLICON-ICWESTERN); format: cell-based, Hepatitis C virus (HCV); details: Hepatitis C virus; 9-13 replicon cells, 50% reduction in NS5A protein; read-out: HEPC_REPLICON-ICWESTERN Result Value (IC50)
Description: Alternatively, the inhibitory activity of the metabolically active agents of the prodrugs can be confirmed using a quantitative Western immunoblot assay utilizing antibodies specific for HCV non-structural proteins, such as NS3, NS4A NS5A and NS5B. In one embodiment of this assay, replicon cells are treated with varying concentrations of test prodrug to determine the concentration of the metabolically active agent of the test prodrug that yields a 50% reduction in the amount of a non-structural protein produced as compared to a control sample (IC50). A single non-structural protein may be quantified or multiple non-structural proteins may be quantified. Antibodies suitable for carrying out such immunoblot assays are available commercially (e.g., from BIODESIGN International, Saco, Me.).
Certain prodrugs of the invention, which may inhibit HCV translation or replication prior to metablism and/or are metabolized into active agents, were also tested for their ability to inhibit HCV replication using a quantitative Western blot analysis with antibodies specific for the HCV NS5A or other non-structural proteins. Actively dividing 9-13 replicon cells were seeded into 6-well plates at a density of 1×10^5 cells/well in a volume of 2 ml/well and incubated at 37° C. and 5% CO2 for 24 hours. Various concentrations of test prodrugs (in a volume of 10 ul) were added to the wells and the cells incubated for another 48 hours. Protein samples were prepared from the cultured cells, resolved on a SDS-PAGE gel and transferred to a nitrocellulose membrane. The membrane was blocked with 5% non-fat milk in PBS for 1 hour at room temperature. Primary antibody (anti NS5A antibody; BIODESIGN International, Saco, Me.) incubation was performed for 1 hour at room temperature, after which the membrane was washed 3 times (for 15 min per time) with PBST (PBS plus 0.1% Tween 20). Horseradish peroxidase conjugated secondary antibody incubation was performed for 1 hour at room temperature and the membrane was washed 3 times (for 15 min per time) with PBST. The membrane was then soaked in substrate solution (Pierce) and exposed to a film or quantified using an imager. In this assay, the amount of test prodrug that is believed to be transformed into an active agent under the given conditions that yielded a 50% reduction in the amount of NS5A protein translated as compared to a control sample (IC50) was determined.

Row | Structure (SMILES) | IC50 [1] [nM] | IC50 [2] [nM]
1 | CC(C)C(NC(=O)CN)C(=O)CCN(C(=O)C(Cl)Cl)c1ccnc(-c2cc(-c3c(Cl)cccc3Cl)no2)c1 (centres unmarked) [Cpd. No. 50, N-(4-(2-Aminoacetamido)-5-methyl-3-oxohexyl)-2,2-dichloro-N-(2-(3-(2,6-dichlorophenyl)isoxazol-5-yl)pyridin-4-yl)acetamide] | < 1000 | < 1000
2 | CC(C)C(NC(=O)C1CC(O)CN1C(=O)OC(C)(C)C)C(=O)CCN(C(=O)C(Cl)Cl)c1ccnc(-c2cc(-c3c(Cl)cccc3Cl)no2)c1 (centres unmarked) [Cpd. No. 53, tert-Butyl 2-(6-(2,2-Dichloro-N-(2-(3-(2,6-dichlorophenyl)isoxazol-5-yl)pyridin-4-yl)acetamido)-2-methyl-4-oxohexan-3-ylcarbamoyl)-4-hydroxypyrrolidine-1-carboxylate] | < 1000 | < 1000
3 | NCCN(C(=O)C(Cl)Cl)c1cccc(-c2cc(-c3c(Cl)cccc3Cl)no2)c1 [Cpd. No. 16, N-(2-Aminoethyl)-2,2-dichloro-N-(3-(3-(2,6-dichlorophenyl)isoxazol-5-yl)phenyl)acetamide] | 1000 to 20000 | 1000 to 20000
4 | NC(CCC(=O)CCN(C(=O)C(Cl)Cl)c1ccnc(-c2cc(-c3c(Cl)cccc3Cl)no2)c1)C(=O)O (centres unmarked) [Cpd. No. 5, 2-Amino-7-(2,2-dichloro-N-(2-(3-(2,6-dichlorophenyl)isoxazol-5-yl)pyridin-4-yl)acetamido)-5-oxoheptanoic acid] | < 1000 | < 1000
5 | CC[C@H](C)[C@H](NC(=O)OC(C)(C)C)C(=O)N[C@H](CN(C(=O)C(Cl)Cl)c1cccc(-c2cc(-c3c(Cl)cccc3Cl)no2)c1)C(C)C [Cpd. No. 28, tert-Butyl (2S,3S)-1-((S)-1-(2,2-Dichloro-N-(3-(3-(2,6-dichlorophenyl)isoxazol-5-yl)phenyl)acetamido)-3-methylbutan-2-ylamino)-3-methyl-1-oxopentan-2-ylcarbamate] | > 20000 | 
6 | O=C(C(Cl)Cl)N(CCP(=O)(O)O)c1cccc(-c2cc(-c3c(Cl)cccc3Cl)no2)c1 [Cpd. No. 2, 2-(2,2-Dichloro-N-(3-(3-(2,6-dichlorophenyl)isoxazol-5-yl)phenyl)acetamido)ethylphosphonic acid] | > 20000 | > 20000
7 | CC[C@H](C)[C@H](NC(=O)OC(C)(C)C)C(=O)NCCN(C(=O)C(Cl)Cl)c1cccc(-c2cc(-c3c(Cl)cccc3Cl)no2)c1 [Cpd. No. 29, tert-Butyl (2S,3S)-1-(2-(2,2-Dichloro-N-(3-(3-(2,6-dichlorophenyl)isoxazol-5-yl)phenyl)acetamido)ethylamino)-3-methyl-1-oxopentan-2-ylcarbamate] | > 20000 | 
8 | CCC(C)C(N)C(=O)NC(C(=O)CCN(C(=O)C(Cl)Cl)c1ccnc(-c2cc(-c3c(Cl)cccc3Cl)no2)c1)C(C)C (centres unmarked) [Cpd. No. 52, 2-Amino-N-(6-(2,2-dichloro-N-(2-(3-(2,6-dichlorophenyl)isoxazol-5-yl)pyridin-4-yl)acetamido)-2-methyl-4-oxohexan-3-yl)-3-methylpentanamide] | < 1000 | < 1000
9 | CC(C)C(NC(=O)C(NC(=O)OC(C)(C)C)C(C)C)C(=O)CCN(C(=O)C(Cl)Cl)c1ccnc(-c2cc(-c3c(Cl)cccc3Cl)no2)c1 (centres unmarked) [Cpd. No. 47, tert-Butyl 1-(6-(2,2-Dichloro-N-(2-(3-(2,6-dichlorophenyl)isoxazol-5-yl)pyridin-4-yl)acetamido)-2-methyl-4-oxohexan-3-ylamino)-3-methyl-1-oxobutan-2-ylcarbamate] | < 1000 | < 1000
10 | CCC(C)C(NC(=O)OC(C)(C)C)C(=O)NC(C(=O)CCN(C(=O)C(Cl)Cl)c1ccnc(-c2cc(-c3c(Cl)cccc3Cl)no2)c1)C(C)C (centres unmarked) [Cpd. No. 51, tert-Butyl 1-(6-(2,2-Dichloro-N-(2-(3-(2,6-dichlorophenyl)isoxazol-5-yl)pyridin-4-yl)acetamido)-2-methyl-4-oxohexan-3-ylamino)-3-methyl-1-oxopentan-2-ylcarbamate] | < 1000 | < 1000
11 | CC(C)OC(=O)OCN(C(=O)C(Cl)Cl)c1ccnc(-c2cc(-c3c(Cl)cccc3Cl)no2)c1 [Cpd. No. 57, (2,2-Dichloro-N-(2-(3-(2,6-dichlorophenyl)isoxazol-5-yl)pyridin-4-yl)acetamido)methyl Isopropyl Carbonate] | 1000 to 20000 | 1000 to 20000
12 | NCC(=O)CCN(C(=O)C(Cl)Cl)c1ccnc(-c2cc(-c3c(Cl)cccc3Cl)no2)c1 [Cpd. No. 60, N-(4-Amino-3-oxobutyl)-2,2-dichloro-N-(2-(3-(2,6-dichlorophenyl)isoxazol-5-yl)pyridin-4-yl)acetamide] | < 1000 | 1000 to 20000
13 | CC(C)[C@@H](N)C(=O)CCN(C(=O)C(Cl)Cl)c1ccnc(-c2cc(-c3c(Cl)cccc3Cl)no2)c1 [Cpd. No. 61, (R)-N-(4-Amino-5-methyl-3-oxohexyl)-2,2-dichloro-N-(2-(3-(2,6-dichlorophenyl)isoxazol-5-yl)pyridin-4-yl)acetamide] | < 1000 | 
14 | CC(C)[C@H](NC(=O)OC(C)(C)C)C(=O)N[C@H](CN(C(=O)C(Cl)Cl)c1cccc(-c2cc(-c3c(Cl)cccc3Cl)no2)c1)C(C)C [Cpd. No. 27, tert-Butyl (S)-1-((S)-1-(2,2-Dichloro-N-(3-(3-(2,6-dichlorophenyl)isoxazol-5-yl)phenyl)acetamido)-3-methylbutan-2-ylamino)-3-methyl-1-oxobutan-2-ylcarbamate] | > 20000 | 
15 | CC(C)OCN(C(=O)C(Cl)Cl)c1ccnc(-c2cc(-c3c(Cl)cccc3Cl)no2)c1 [Cpd. No. 9, 2,2-Dichloro-N-(2-(3-(2,6-dichlorophenyl)isoxazol-5-yl)pyridin-4-yl)-N-(isopropoxymethyl)acetamide] | > 20000 | 
16 | CC(C)[C@H](NC(=O)OC(C)(C)C)C(=O)NCCN(C(=O)C(Cl)Cl)c1cccc(-c2cc(-c3c(Cl)cccc3Cl)no2)c1 [Cpd. No. 30, (S)-tert-Butyl 1-(2-(2,2-Dichloro-N-(3-(3-(2,6-dichlorophenyl)isoxazol-5-yl)phenyl)acetamido)ethylamino)-3-methyl-1-oxobutan-2-ylcarbamate] | > 20000 | 
17 | CC(C)[C@@H](CN(C(=O)C(Cl)Cl)c1cccc(-c2cc(-c3c(Cl)cccc3Cl)no2)c1)NC(=O)[C@@H](N)c1ccccc1 [Cpd. No. 40, N-((S)-2-((S)-2-Amino-2-phenylacetamido)-3-methylbutyl)-2,2-dichloro-N-(3-(3-(2,6-dichlorophenyl)isoxazol-5-yl)phenyl)acetamide] |  | > 20000
18 | N[C@@H](C(=O)NCCN(C(=O)C(Cl)Cl)c1cccc(-c2cc(-c3c(Cl)cccc3Cl)no2)c1)c1ccccc1 [Cpd. No. 20, (R)-N-(2-(2-Amino-2-phenylacetamido)ethyl)-2,2-dichloro-N-(3-(3-(2,6-dichlorophenyl)isoxazol-5-yl)phenyl)acetamide] |  | 1000 to 20000
19 | CC(C)[C@@H](CN(C(=O)C(Cl)Cl)c1cccc(-c2cc(-c3c(Cl)cccc3Cl)no2)c1)NC(=O)CN(C)C(=O)OC(C)(C)C [Cpd. No. 25, (S)-tert-Butyl 2-(1-(2,2-Dichloro-N-(3-(3-(2,6-dichlorophenyl)isoxazol-5-yl)phenyl)acetamido)-3-methylbutan-2-ylamino)-2-oxoethyl(methyl)carbamate] |  | 1000 to 20000
